This is an account of results in patent publication US20220023386A1, “METHOD FOR THE TREATMENT OR PREVENTION OF OSTEOARTHRITIS” (Chondropeptix B.V., priority 2016, published 2022).

Common to all, as to experiment: Expression of OA chondrocyte phenotype marker genes by RT-qPCR after peptide exposure
Assay type in all cases: cell-based, human

The test system of assay [1] is OA articular chondrocytes. On the set-up: key: [+] denotes a significantly increased expression of chondrogenic marker BAPX1/NKX3.2 or a decreased expression of OA chondrocyte phenotypic markers ALP, MMP13, ADAMTS5, COX2, COL10A and RUNX2 in OA articular chondrocytes, in comparison to untreated OA articular chondrocytes.; [−] denotes the absence of a significant effort or a significantly decreased expression of chondrogenic marker BAPX1/NKX3.2 or an increased expression of OA chondrocyte phenotypic markers ALP, MMP13, ADAMTS5, COX2, COL10A and RUNX2 in OA articular chondrocytes, in comparison to untreated OA articular chondrocytes. The conditions noted are these: Table 2 (FIGS. 2-8), peptide 10 nM, 24 hours, vs untreated OA articular chondrocytes.

Assay [2] deals with OA articular chondrocytes. More on the design: key: [+] denotes a significantly increased expression of chondrogenic marker BAPX1/NKX3.2 or a decreased expression of OA chondrocyte phenotypic markers ALP, MMP13, ADAMTS5, COX2, COL10A and RUNX2 in OA articular chondrocytes, in comparison to untreated OA articular chondrocytes.; [−] denotes the absence of a significant effort or a significantly decreased expression of chondrogenic marker BAPX1/NKX3.2 or an increased expression of OA chondrocyte phenotypic markers ALP, MMP13, ADAMTS5, COX2, COL10A and RUNX2 in OA articular chondrocytes, in comparison to untreated OA articular chondrocytes. The conditions noted are these: Table 2 (FIGS. 2-8), peptide 10 nM, 24 hours, vs untreated OA articular chondrocytes. On the procedure:
The action of 20-mer peptides (10 nM) of SEQ ID NO: 2-15 (peptides with 1 amino acids intervals (19 amino acid overlap)) and SEQ ID NO:49 on the expression of the indicated genes was determined on a validated pool of passage 2 OA human articular chondrocytes (n=18) and compared to full-length recombinant BMP-7 (1 nM). Samples were harvested after 24 hours and analyzed for indicated genes by RT-qPCR (corrected for 28S rRNA expression and relative to control conditions (no peptide exposure)). In the graphs, numbers on the x-axis represent individual peptides according to their SEQ ID NO:, error bars represent mean±SEM, statistical differences were calculated (one-way ANOVA with bonferroni correction) to control condition. *=p<0.05 lower than control condition for COL10A1, ALP, RUNX2, COX-2, MMP13 and ADAMTS5 and higher than control condition for BAPX1/NKX3.2. Random peptide is a peptide according to SEQ ID NO: 49 with amino acid sequence […].
The source holds these as a separate data set.

Assay [3] relates to OA articular chondrocytes. The following applies: independent of the tested concentration (1000, 100, 10 and 1 nM were tested).

“3 (IIAPEGYAAYYSEGESAFPL; homo sapiens) [compound 3]”: the MMP13 expression entry in assay [1] is recorded as “−”. Further, in assay [2], the ADAMTS5 expression result was “−”, the ALP expression result was “−”, the BAPX1/NKX3.2 expression result is on record as “−” and the COL10A expression result is “−”. For the same substance, in assay [2], the COX-2 expression result is “+” and the RUNX2 expression entry is recorded as “−”.

Turning to “14 (SEGESAFPLNSYMNATNHAI; homo sapiens) [compound 14]”, in assay [1], the MMP13 expression entry is listed as “−”. Further, in assay [2], the ADAMTS5 expression entry was “−”, the ALP expression entry was “−”, the BAPX1/NKX3.2 expression entry is reported as “−” and the COL10A expression result is reported as “−”. In assay [2], the COX-2 expression result is given as “−” and the RUNX2 expression entry is given as “+”.

For “APEGYAAYYSEGESAFPLNS (homo sapiens) [SEQ ID NO: 5]”, in assay [3], the “suppression of the OA chondrocyte phenotype” value (“suppression” for short) is given as “efficiently suppressed”.

For “11 (AYYSEGESAFPLNSYMNATN; homo sapiens) [compound 11]”, the MMP13 expression entry in assay [1] is given as “+”. Further, in assay [2], the ADAMTS5 expression entry is listed as “+”, the ALP expression result is recorded as “+”, the BAPX1/NKX3.2 expression result is “+” and the COL10A expression result was “+”. Besides, in assay [2], the COX-2 expression result is given as “+” and the RUNX2 expression result was “+”.

With “5 (APEGYAAYYSEGESAFPLNS; homo sapiens) [compound 5]”, the MMP13 expression result in assay [1] is listed as “−”. Besides, in assay [2], the ADAMTS5 expression entry is given as “+”, the ALP expression entry is on record as “+”, the BAPX1/NKX3.2 expression entry is “+” and the COL10A expression entry is reported as “+”. Also, in assay [2], the COX-2 expression entry is listed as “+” and the RUNX2 expression entry is on record as “+”.

Regarding “YSEGESAFPLNSYMNATNHA (homo sapiens) [SEQ ID NO: 13]”, the “suppression” value in assay [3] is “efficiently suppressed”.

For “4 (IAPEGYAAYYSEGESAFPLN; homo sapiens) [compound 4]”, the MMP13 expression result in assay [1] is listed as “−”. Moreover, in assay [2], the ADAMTS5 expression entry is listed as “−”, the ALP expression entry was “−”, the BAPX1/NKX3.2 expression entry is reported as “−” and the COL10A expression entry is reported as “−”. In assay [2], the COX-2 expression result is reported as “+” and the RUNX2 expression entry is given as “−”.

As to “IAPEGYAAYYSEGESAFPLN (homo sapiens) [SEQ ID NO: 4]”, in assay [3], the “suppression” value is on record as “efficiently suppressed”.

Take “12 (YYSEGESAFPLNSYMNATNH; homo sapiens) [compound 12]”: the MMP13 expression entry in assay [1] is “+”. Further, in assay [2], the ADAMTS5 expression entry is “+”, the ALP expression result is “+”, the BAPX1/NKX3.2 expression entry was “+” and the COL10A expression entry is “+”. For the same substance, in assay [2], the COX-2 expression result is “+” and the RUNX2 expression result is “+”.

Regarding “AYYSEGESAFPLNSYMNATN (homo sapiens) [SEQ ID NO: 11]”, the “suppression” value in assay [3] is on record as “efficiently suppressed”.

On to “EGYAAYYSEGESAFPLNSYM (homo sapiens) [SEQ ID NO: 7]”, for which the “suppression” value in assay [3] is given as “efficiently suppressed”.

With “SEGESAFPLNSYMNATNHAI (homo sapiens) [SEQ ID NO: 14]”, the “suppression” value in assay [3] is on record as “efficiently suppressed”.

As to “7 (EGYAAYYSEGESAFPLNSYM; homo sapiens) [compound 7]”, in assay [2], the ADAMTS5 expression result is recorded as “+”, the ALP expression entry is given as “+”, the BAPX1/NKX3.2 expression entry is on record as “+” and the COL10A expression result is on record as “+”. For the same substance, in assay [2], the COX-2 expression result is on record as “+” and the RUNX2 expression entry is “+”.

With “10 (AAYYSEGESAFPLNSYMNAT; homo sapiens) [compound 10]”, the MMP13 expression entry in assay [1] is reported as “+”. Besides, in assay [2], the ADAMTS5 expression entry is listed as “+”, the ALP expression entry is “+”, the BAPX1/NKX3.2 expression entry was “+” and the COL10A expression entry was “+”. For the same substance, in assay [2], the COX-2 expression result was “+” and the RUNX2 expression result is listed as “+”.

In the case of “WIIAPEGYAAYYSEGESAFP (homo sapiens) [SEQ ID NO: 2]”, in assay [3], the “suppression” value is listed as “efficiently suppressed”.

As to “PEGYAAYYSEGESAFPLNSY (homo sapiens) [SEQ ID NO: 6]”, the “suppression” value in assay [3] was “efficiently suppressed”.

As for “2 (WIIAPEGYAAYYSEGESAFP; homo sapiens) [compound 2]”, the MMP13 expression entry in assay [1] is “−”. Further, in assay [2], the ADAMTS5 expression result is listed as “−”, the ALP expression result is given as “−”, the BAPX1/NKX3.2 expression entry is on record as “−” and the COL10A expression result was “−”. Further, in assay [2], the COX-2 expression entry is “+” and the RUNX2 expression entry is reported as “−”.

As for “8 (GYAAYYSEGESAFPLNSYMN; homo sapiens) [compound 8]”, the MMP13 expression result in assay [1] is “+”. Moreover, in assay [2], the ADAMTS5 expression result is given as “+”, the ALP expression result is listed as “+”, the BAPX1/NKX3.2 expression entry is “+” and the COL10A expression entry is reported as “+”. In assay [2], the COX-2 expression result was “+” and the RUNX2 expression entry is reported as “+”.

With “6 (PEGYAAYYSEGESAFPLNSY; homo sapiens) [compound 6]”, the MMP13 expression entry in assay [1] was “−”. In addition, in assay [2], the ADAMTS5 expression entry is listed as “+”, the ALP expression result is listed as “+”, the BAPX1/NKX3.2 expression result is “+” and the COL10A expression result was “+”. Besides, in assay [2], the COX-2 expression entry is on record as “+” and the RUNX2 expression entry is on record as “+”.

Regarding “15 (EGESAFPLNSYMNATNHAIV; homo sapiens) [compound 15]”, the MMP13 expression result in assay [1] was “−”. For the same substance, in assay [2], the ADAMTS5 expression result is “−”, the ALP expression entry is listed as “−”, the BAPX1/NKX3.2 expression entry is listed as “−” and the COL10A expression entry was “−”. Also, in assay [2], the COX-2 expression result is “−” and the RUNX2 expression entry is given as “+”.

With “9 (YAAYYSEGESAFPLNSYMNA; homo sapiens) [compound 9]”, the MMP13 expression entry in assay [1] is “+”. Also, in assay [2], the ADAMTS5 expression result is recorded as “+”, the ALP expression result was “+”, the BAPX1/NKX3.2 expression entry was “+” and the COL10A expression result is “+”. Besides, in assay [2], the COX-2 expression entry was “+” and the RUNX2 expression result is listed as “+”.

Consider “13 (YSEGESAFPLNSYMNATNHA; homo sapiens) [compound 13]”, for which the MMP13 expression result in assay [1] is “+”. Also, in assay [2], the ADAMTS5 expression entry is “+”, the ALP expression entry is listed as “+”, the BAPX1/NKX3.2 expression entry is on record as “+” and the COL10A expression entry was “+”. Besides, in assay [2], the COX-2 expression result is “+” and the RUNX2 expression result was “+”.

Take “EGESAFPLNSYMNATNHAIV (homo sapiens) [SEQ ID NO: 15]”: the “suppression” value in assay [3] is on record as “efficiently suppressed”.

As for “YYSEGESAFPLNSYMNATNH (homo sapiens) [SEQ ID NO: 12]”, in assay [3], the “suppression” value is given as “efficiently suppressed”.

“YAAYYSEGESAFPLNSYMNA (homo sapiens) [SEQ ID NO: 9]”: the “suppression” value in assay [3] is “efficiently suppressed”.

For the substance “IIAPEGYAAYYSEGESAFPL (homo sapiens) [SEQ ID NO: 3]”, the “suppression” value in assay [3] is “efficiently suppressed”.

With “AAYYSEGESAFPLNSYMNAT (homo sapiens) [SEQ ID NO: 10]”, the “suppression” value in assay [3] was “efficiently suppressed”.
